Test results: patent publication US6737383B1, “Herbicidal oxadiazolidines” (priority 1999, dated 2004)

Columns and labels:
[1] = system: wild oat; assay: Test E wild oat; type: in vivo, Avena fatua; conditions: Preemergence; for Wild oat plant response rating (0 to 100 scale): Rate 250 g/ha
[2] = system: crabgrass; assay: Test B pre/postemergence crabgrass; type: in vivo, Digitaria sanguinalis
How it was run: (§1)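 Test chemicals in a non-phytotoxic solvent mixture with surfactant were sprayed preemergence onto planted seeds and postemergence onto plants 2 to 18 cm tall (1- to 4-leaf stage). After twelve to sixteen days in a greenhouse, injury was visually rated against untreated controls from 0 (no effect) to 10 (complete control).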

[3] = system: wild oat; assay: Test B pre/postemergence wild oat; type: in vivo, Avena fatua; conditions: for Wild oats plant response rating (0 to 10 scale): 0 is no effect
How it was run: as §1

[4] = system: winter wheat; assay: Test E winter wheat; type: in vivo, Triticum aestivum; conditions: Postemergence; for Wheat (winter) plant response rating: 0 to 100 scale where 0 is no effect and 100 is complete control
How it was run: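 Compounds formulated in non-phytotoxic solvent mixture with surfactant; for postemergence, sprayed on plants at 1- to 4-leaf stage grown in 60:40 sandy loam/greenhouse potting mix. Kept in greenhouse ~21 to 28 days, then visually rated against untreated controls.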

[5] = system: winter barley; assay: Test E winter barley; type: in vivo, Hordeum vulgare; conditions: Preemergence
[6] = system: Italian ryegrass; assay: Test E Italian ryegrass; type: in vivo, Lolium multiflorum; conditions: Preemergence
[7] = system: winter wheat; assay: Test E winter wheat; type: in vivo, Triticum aestivum; conditions: Preemergence
[8] = system: wheat; assay: Test B pre/postemergence wheat; type: in vivo, Triticum aestivum; conditions: for Wheat plant response rating (0 to 10 scale): 0 is no effect
How it was run: as §1

[9] = system: blackgrass; assay: Test E blackgrass; type: in vivo, Alopecurus myosuroides; conditions: Preemergence
[10] = system: cocklebur; assay: Test B pre/postemergence cocklebur; type: in vivo, Xanthium strumarium; conditions: for Cocklebur plant response rating (0 to 10 scale): 0 is no effect
How it was run: as §1

[11] = system: green foxtail; assay: Test E green foxtail; type: in vivo, Setaria viridis; conditions: Preemergence
[12] = Rate 62 g/ha, 0 to 100 scale, 0 no effect, 100 complete control
[13] = Rate 125 g/ha, 0 to 100 scale (0 no effect, 100 complete control)
[14] = Postemergence, Rate 125 g/ha, scale of 0 to 10 where 0 is no effect and 10 is complete control
[15] = Postemergence, Rate 250 g/ha, scale 0 to 10, 0 no effect, 10 complete control
[16] = Preemergence, Rate 62 g/ha, scale 0 to 10 (0 no effect, 10 complete control)
[17] = Preemergence, Rate 125 g/ha, scale 0 to 10 (0 no effect, 10 complete control)
[18] = Preemergence, Rate 250 g/ha, scale of 0 to 10 where 0 is no effect and 10 is complete control
[19] = Preemergence, Rate 500 g/ha, scale 0 to 10 (0 no effect, 10 complete control)
[20] = Rate 62 g/ha, Postemergence, scale of 0 to 10 where 0 is no effect and 10 is complete control
[21] = Rate 500 g/ha, Postemergence, scale 0 to 10, 0 no effect, 10 complete control
[22] = Preemergence, Rate 125 g/ha, 10 is complete control
[23] = Rate 250 g/ha, Postemergence, scale 0 to 10, 0 is no effect, 10 is complete control
[24] = Rate 500 g/ha, 0 to 100 scale where 0 is no effect and 100 is complete control
[25] = Rate 1000 g/ha, 0 to 100 scale where 0 is no effect and 100 is complete control
[26] = Preemergence, Rate 62 g/ha, scale of 0 to 10 where 0 is no effect and 10 is complete control
[27] = Preemergence, Rate 250 g/ha, scale 0 to 10, 0 is no effect, 10 is complete control
[28] = Rate 500 g/ha, Postemergence, scale 0 to 10
[29] = Rate 1000 g/ha, 0 to 100 scale, 0 is no effect and 100 is complete control

CC(C)N(C(=O)n1oc(=O)n(C2CCCCC2)c1=O)c1ccc(Cl)cc1 [Compound 111]
Plant response rating, Wild oat [1, 12]: 0
Plant response rating, Wild oat [1, 13]: 0
Crabgrass plant response rating [2, 14]: 2
Crabgrass plant response rating [2, 15]: 3
Crabgrass plant response rating [2, 16]: 6
Plant response rating, Crabgrass [2, 17]: 7
Plant response rating, Crabgrass [2, 18]: 9
Crabgrass plant response rating [2, 19]: 9
Crabgrass plant response rating [2, 20]: 1
Crabgrass plant response rating [2, 21]: 9
Wild oats plant response rating [3, 14]: 0
Wild oats plant response rating [3, 16]: 0
Wild oats plant response rating (0 to 10 scale) [3, 22]: 0
Plant response rating, Wild oats [3, 18]: 2
Wild oats plant response rating [3, 19]: 4
Wild oats plant response rating [3, 20]: 0
Plant response rating, Wild oats [3, 23]: 1
Wild oats plant response rating [3, 21]: 2
Plant response rating, Wheat (winter) ([4]; Rate 62 g/ha, 0 to 100 scale): 0
Plant response rating, Wheat (winter) ([4]; Rate 125 g/ha, 0 to 100 scale): 0
Plant response rating, Wheat (winter) ([4]; Rate 250 g/ha, 0 to 100 scale (0 no effect, 100 complete control)): 0
Plant response rating, Barley (winter) [5, 12]: 0
Plant response rating, Barley (winter) [5, 13]: 0
Plant response rating, Barley (winter) ([5]; Rate 250 g/ha, 0 to 100 scale): 0
Plant response rating, I. Ryegrass [6, 12]: 0
Plant response rating, I. Ryegrass [6, 13]: 0
Plant response rating, I. Ryegrass ([6]; Rate 250 g/ha, 0 to 100 scale): 0
Plant response rating, Wheat (winter) [7, 12]: 0
Plant response rating, Wheat (winter) [7, 13]: 0
Plant response rating, Wheat (winter) ([7]; Rate 250 g/ha, 0 to 100 scale): 0
Wheat plant response rating [8, 14]: 0
Wheat plant response rating [8, 16]: 0
Wheat plant response rating (0 to 10 scale) [8, 22]: 0
Plant response rating, Wheat [8, 18]: 0
Wheat plant response rating [8, 19]: 3
Wheat plant response rating [8, 20]: 0
Plant response rating, Wheat [8, 23]: 0
Wheat plant response rating [8, 21]: 0
Plant response rating, Blackgrass [9, 12]: 0
Plant response rating, Blackgrass [9, 13]: 0
Plant response rating, Blackgrass ([9]; Rate 250 g/ha, 0 to 100 scale): 0
Cocklebur plant response rating [10, 14]: 0
Cocklebur plant response rating [10, 15]: 2
Cocklebur plant response rating [10, 16]: 0
Plant response rating, Cocklebur [10, 17]: 0
Plant response rating, Cocklebur [10, 18]: 0
Cocklebur plant response rating [10, 19]: 0
Cocklebur plant response rating [10, 20]: 0
Cocklebur plant response rating [10, 21]: 3
Plant response rating, Green foxtail [11, 12]: 0
Plant response rating, Green foxtail [11, 13]: 0
Plant response rating, Green foxtail ([11]; Rate 250 g/ha, 0 to 100 scale): 10

CC(C)N(C(=O)n1oc(=O)n(CC(F)(F)F)c1=O)c1ccc(F)cc1 [Compound 163]
Wild oat plant response rating (0 to 100 scale) [1]: 50
Plant response rating, Wild oat [1, 24]: 60
Plant response rating, Wild oat [1, 25]: 70
Crabgrass plant response rating [2, 14]: 7
Crabgrass plant response rating [2, 26]: 8
Crabgrass plant response rating [2, 27]: 8
Crabgrass plant response rating [2, 19]: 9
Crabgrass plant response rating [2, 20]: 6
Plant response rating, Crabgrass [2, 23]: 8
Crabgrass plant response rating [2, 28]: 9
Wild oats plant response rating [3, 26]: 3
Wild oats plant response rating (0 to 10 scale) [3, 22]: 3
Wild oats plant response rating [3, 27]: 7
Wild oats plant response rating [3, 19]: 10
Plant response rating, Wild oats [3, 23]: 3
Wild oats plant response rating [3, 28]: 3
Plant response rating, Wheat (winter) [4, 29]: 70
Plant response rating, Wheat (winter) ([4]; Rate 500 g/ha, 0 to 100 scale, 0 no effect, 100 complete control): 50
Wheat (winter) plant response rating ([4]; Rate 250 g/ha): 40
Barley (winter) plant response rating (0 to 100 scale) ([5]; Rate 250 g/ha): 30
Plant response rating, Barley (winter) [5, 24]: 40
Plant response rating, Barley (winter) [5, 25]: 50
I. Ryegrass plant response rating (0 to 100 scale) ([6]; Rate 250 g/ha): 30
Plant response rating, I. Ryegrass [6, 24]: 50
Plant response rating, I. Ryegrass [6, 25]: 60
Wheat (winter) plant response rating (0 to 100 scale) ([7]; Rate 250 g/ha): 30
Plant response rating, Wheat (winter) [7, 25]: 55
Wheat plant response rating [8, 26]: 0
Wheat plant response rating (0 to 10 scale) [8, 22]: 2
Wheat plant response rating [8, 27]: 2
Wheat plant response rating [8, 19]: 4
Plant response rating, Wheat [8, 23]: 2
Wheat plant response rating [8, 28]: 5
Blackgrass plant response rating (0 to 100 scale) ([9]; Rate 250 g/ha): 30
Plant response rating, Blackgrass [9, 24]: 40
Plant response rating, Blackgrass [9, 25]: 50
Cocklebur plant response rating [10, 14]: 0
Cocklebur plant response rating [10, 26]: 0
Cocklebur plant response rating (0 to 10 scale) [10, 22]: 0
Cocklebur plant response rating [10, 19]: 0
Cocklebur plant response rating [10, 20]: 0
Plant response rating, Cocklebur [10, 23]: 3
Cocklebur plant response rating [10, 28]: 3
Green foxtail plant response rating (0 to 100 scale) ([11]; Rate 250 g/ha): 100
Plant response rating, Green foxtail [11, 24]: 100
Plant response rating, Green foxtail [11, 25]: 100

CC(C)Cn1c(=O)on(C(=O)N(c2ccc(F)cc2)C(C)C)c1=O [Compound 169]
Wild oat plant response rating (0 to 100 scale) [1]: 50
Plant response rating, Wild oat [1, 24]: 30
Plant response rating, Wild oat [1, 25]: 40
Crabgrass plant response rating [2, 14]: 8
Crabgrass plant response rating [2, 26]: 8
Crabgrass plant response rating (0 to 10 scale) ([2]; Preemergence, Rate 125 g/ha, 0 is no effect, 10 is complete control): 8
Crabgrass plant response rating [2, 27]: 10
Crabgrass plant response rating [2, 19]: 10
Crabgrass plant response rating [2, 20]: 2
Plant response rating, Crabgrass [2, 23]: 9
Crabgrass plant response rating [2, 28]: 9
Wild oats plant response rating [3, 26]: 8
Wild oats plant response rating (0 to 10 scale) [3, 22]: 8
Wild oats plant response rating [3, 27]: 8
Wild oats plant response rating [3, 19]: 10
Plant response rating, Wild oats [3, 23]: 0
Wild oats plant response rating [3, 28]: 2
Plant response rating, Wheat (winter) [4, 29]: 65
Wheat (winter) plant response rating ([4]; Rate 250 g/ha): 40
Plant response rating, Wheat (winter) ([4]; Rate 500 g/ha, 0 to 100 scale, 0 is no effect, 100 is complete control): 50
Barley (winter) plant response rating (0 to 100 scale) ([5]; Rate 250 g/ha): 30
Plant response rating, Barley (winter) [5, 24]: 30
Plant response rating, Barley (winter) [5, 25]: 50
I. Ryegrass plant response rating (0 to 100 scale) ([6]; Rate 250 g/ha): 75
Plant response rating, I. Ryegrass [6, 24]: 80
Plant response rating, I. Ryegrass [6, 25]: 90
Wheat (winter) plant response rating (0 to 100 scale) ([7]; Rate 250 g/ha): 10
Plant response rating, Wheat (winter) [7, 24]: 40
Plant response rating, Wheat (winter) [7, 25]: 65
Wheat plant response rating [8, 26]: 0
Wheat plant response rating (0 to 10 scale) [8, 22]: 0
Wheat plant response rating [8, 27]: 3
Wheat plant response rating [8, 19]: 4
Plant response rating, Wheat [8, 23]: 0
Wheat plant response rating [8, 28]: 2
Blackgrass plant response rating (0 to 100 scale) ([9]; Rate 250 g/ha): 30
Plant response rating, Blackgrass [9, 24]: 60
Plant response rating, Blackgrass [9, 25]: 55
Cocklebur plant response rating [10, 14]: 0
Cocklebur plant response rating [10, 26]: 0
Cocklebur plant response rating (0 to 10 scale) [10, 22]: 0
Cocklebur plant response rating [10, 27]: 0
Cocklebur plant response rating [10, 19]: 0
Cocklebur plant response rating [10, 20]: 0
Plant response rating, Cocklebur [10, 23]: 0
Cocklebur plant response rating [10, 28]: 3
Green foxtail plant response rating (0 to 100 scale) ([11]; Rate 250 g/ha): 60
Plant response rating, Green foxtail [11, 24]: 70
Plant response rating, Green foxtail [11, 25]: 95
